Measured values published in patent US20140018552A1, “USE OF COMPOUNDS ISOLATED FROM MORUS BARK” (Dong Wha Pharm. Co., Ltd., priority 2011, published 2014).
Converted amounts (≈) assume the structure as drawn.

What follows are molecules tested on AGE production (assay: Assay of inhibition effect on AGE production (BSA with fructose and glucose, fluorescence analysis)). Conditions: 10 mg/ml BSA, 0.2 M fructose and glucose, 37° for 7 days; fluorescence Ex 360 nm/Em 465 nm; average ± standard deviation.
Assay type: biochemical, bovine
Experimental: After preparing 10 mg/ml bovine serum albumin (BSA) dissolved in 50 mM of phosphate buffer (pH 7.4), AGE production was induced by culturing the mixture of 0.2 M of fructose and glucose at 37 °C for 7 days. The compounds extracted from Morus Bark and prepared from Example 1 to 8 was handled in the concentration of 0.1 μg/Ml respectively. (All the compounds were dissolved in 100% of ethanol.) Pyridoxamine known for AGE inhibitor was used as a positive control group. AGE production was induced by using only fructose and glucose to BSA culturing at 37 °C for 7 days. It was handled in the concentration of 0.1 μg/Ml to 1000 μg/Ml.
After 7 days, the amount of AGE produced in culture medium was measured by using microplate reader (Excitation: 360 nm, Emission: 465 nm, fluorescence analysis).
The rate of inhibiting the production was counted by the following numerical formula. […] Also, the average and standard deviation of IC50 value were calculated from at least 3 independent experiments.
The rate of inhibiting the production (%)=100−(Fluorescence intensity of Experimental group−Fluorescence intensity of Reference)/(Fluorescence intensity of Control group−Fluorescence intensity of Control-Reference)×100

Compound | IC50 | IC50 value
Cc1ncc(CO)c(CN)c1O [Pyridoxamine, reference compound] | 747 ± 213 µM | 125.7 ± 35.8 µg/mL (≈ 747 µM)
O=C1CC(c2ccc(O)cc2O)Oc2cc(O)cc(O)c21 (centres unmarked) [Example. 6, 2′,4′,5,7-tetrahydroxyflavanone] | 96.2 ± 10.1 µM | 27.7 ± 2.9 µg/mL (≈ 96.1 µM)
O=C1c2c(O)cc(O)cc2OC(c2ccc(O)cc2O)C1O (centres unmarked) [Example. 8, Dihydromorin] | 81.9 ± 3.3 µM | 24.9 ± 1.0 µg/mL (≈ 81.8 µM)
Oc1cc(O)cc(/C=C/c2ccc(O)cc2O)c1 [Example. 5, Oxyresveratrol] | 19.3 ± 4.1 µM | 4.7 ± 1.0 µg/mL (≈ 19.2 µM)

Other lines, results leading:

IC50 | IC50 value | Compound
79.5 ± 19.4 µM | 44.7 ± 10.9 µg/mL (≈ 79.5 µM) | CC1=C[C@H]2c3c(O)cc(-c4cc5ccc(O)cc5o4)cc3O[C@@]3(c4ccc(O)cc4O)Oc4cc(O)ccc4[C@H](C1)[C@@H]23 [Example. 1, Mulberrofuran G]
46.1 ± 11.8 µM | 27.4 ± 7.0 µg/mL (≈ 46.1 µM) | CC12CC(c3ccc(O)cc3O1)C13OC1(c1ccc(O)cc1O)Oc1cc(/C=C/c4ccc(O)cc4O)cc(O)c1C3C2=O (centres unmarked) [Example. 4, Kuwanon Z]
160 ± 16.7 µM | 70.1 ± 7.3 µg/mL (≈ 160 µM) | CC(C)(O)CCc1c(-c2ccc(O)cc2O)oc2cc3c(c(O)c2c1=O)C=CC(C)(C)O3 [Example. 7, Morusignin L]
